# Test results reported in ChEMBL document CHEMBL4406808, “Synthesis and assessment of phenylacrylamide derivatives as potential anti-oxidant and anti-inflammatory agents” (Eur J Med Chem, 2019).
# Active and inactive are the calls of the source. No cut-off for these calls is given here.
# Columns and labels:
# HBZY-1 [1] = assay: Cytoprotection activity against H2O2-induced cell death in rat HBZY-1 cells assessed as cell viability at 6 uM preincubated with compound for 2 hrs followed by H2O2 addition and measured after 24 hrs by MTT assay (reference value: 62.1%); format: functional; details: read-out: Activity
# HBZY-1 [2] = assay: Cytotoxicity against rat HBZY-1 cells assessed as reduction in cell viability after 2 hrs by MTT assay; format: cell-based; details: HBZY-1, 2 h
# [3] = biological target: Kelch-like ECH-associated protein 1 (Rattus norvegicus) (UniProt P57790); assay: Binding affinity to Keap1 in rat HBZY-1 cells assessed as induction of Keap1/Nrf2 signaling by measuring increase in GCLC protein expression by Western blot analysis; format: cell-based
# Kelch-like ECH-associated protein 1 (Rattus norvegicus), sequence (P57790 whole entry): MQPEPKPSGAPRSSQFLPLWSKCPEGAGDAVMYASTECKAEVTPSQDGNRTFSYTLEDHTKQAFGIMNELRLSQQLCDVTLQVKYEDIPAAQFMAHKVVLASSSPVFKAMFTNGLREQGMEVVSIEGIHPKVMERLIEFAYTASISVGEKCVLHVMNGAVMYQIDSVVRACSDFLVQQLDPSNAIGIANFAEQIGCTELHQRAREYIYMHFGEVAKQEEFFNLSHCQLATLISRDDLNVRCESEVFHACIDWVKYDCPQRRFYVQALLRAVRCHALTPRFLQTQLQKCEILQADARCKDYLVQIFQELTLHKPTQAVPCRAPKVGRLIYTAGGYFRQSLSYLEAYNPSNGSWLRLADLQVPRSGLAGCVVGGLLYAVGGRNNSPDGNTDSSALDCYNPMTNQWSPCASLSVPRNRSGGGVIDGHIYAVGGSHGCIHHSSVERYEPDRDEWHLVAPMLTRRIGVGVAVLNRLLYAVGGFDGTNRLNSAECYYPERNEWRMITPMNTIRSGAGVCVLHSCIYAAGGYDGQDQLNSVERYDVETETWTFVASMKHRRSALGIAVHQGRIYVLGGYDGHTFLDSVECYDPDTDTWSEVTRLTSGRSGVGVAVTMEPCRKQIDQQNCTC
# [4] = biological target: Kelch-like ECH-associated protein 1 (Rattus norvegicus) (UniProt P57790); assay: Binding affinity to Keap1 in rat HBZY-1 cells assessed as induction of Keap1/Nrf2 signaling by measuring increase in NQO-1 mRNA expression at 6 uM by RT-PCR analysis; format: cell-based
# [5] = biological target: Kelch-like ECH-associated protein 1 (Rattus norvegicus) (UniProt P57790); assay: Binding affinity to Keap1 in rat HBZY-1 cells assessed as induction of Keap1/Nrf2 signaling by measuring increase in GCLC mRNA expression at 6 uM by RT-PCR analysis; format: cell-based
# [6] = biological target: Kelch-like ECH-associated protein 1 (Rattus norvegicus) (UniProt P57790); assay: Binding affinity to Keap1 in rat HBZY-1 cells assessed as induction of Keap1/Nrf2 signaling by measuring increase in HO-1 mRNA expression at 6 uM by RT-PCR analysis; format: cell-based
# [7] = biological target: Kelch-like ECH-associated protein 1 (Rattus norvegicus) (UniProt P57790); assay: Binding affinity to Keap1 in rat HBZY-1 cells assessed as induction of Keap1/Nrf2 signaling by measuring increase in NQO-1 protein expression by Western blot analysis; format: cell-based
# [8] = biological target: Kelch-like ECH-associated protein 1 (Rattus norvegicus) (UniProt P57790); assay: Binding affinity to Keap1 in rat HBZY-1 cells assessed as induction of Keap1/Nrf2 signaling by measuring increase in GCLM protein expression by Western blot analysis; format: cell-based
# [9] = biological target: Kelch-like ECH-associated protein 1 (Rattus norvegicus) (UniProt P57790); assay: Binding affinity to Keap1 in rat HBZY-1 cells assessed as induction of Keap1/Nrf2 signaling by measuring increase in HO-1 protein expression by Western blot analysis; format: cell-based
# [10] = biological target: Kelch-like ECH-associated protein 1 (Rattus norvegicus) (UniProt P57790); assay: Binding affinity to Keap1 in rat HBZY-1 cells assessed as induction of Nrf2 nuclear translocation by measuring increase in ratio of nuclear to cytosolic Nrf2 level by Western blot analysis; format: cell-based
# [11] = biological target: Kelch-like ECH-associated protein 1 (Rattus norvegicus) (UniProt P57790); assay: Binding affinity to Keap1 in rat HBZY-1 cells assessed as induction of Keap1/Nrf2 signaling by measuring increase in GCLM mRNA expression at 6 uM by RT-PCR analysis; format: cell-based
# HBZY-1 [12] = assay: Cytoprotection against H2O2-induced cell death in rat HBZY-1 cells assessed as increase in cell viability at 6 uM preincubated for 2 hrs followed by H2O2 addition and measured after 24 hrs in presence of GCL inhibitor BSO by MTT assay; format: functional, cell-based
# [13] = biological target: Kelch-like ECH-associated protein 1 (Rattus norvegicus) (UniProt P57790); assay: Binding affinity to Keap1 in rat HBZY-1 cells assessed as induction of Keap1/Nrf2 signaling by measuring increase in GCLM protein expression at 6 uM by Western blot analysis; format: cell-based; details: TDE = time-dependent effect
# [14] = biological target: Kelch-like ECH-associated protein 1 (Rattus norvegicus) (UniProt P57790); assay: Binding affinity to Keap1 in rat HBZY-1 cells assessed as induction of Keap1/Nrf2 signaling by measuring increase in NQO-1 protein expression at 6 uM by Western blot analysis; format: cell-based; details: TDE = time-dependent effect
# [15] = biological target: Kelch-like ECH-associated protein 1 (Rattus norvegicus) (UniProt P57790); assay: Binding affinity to Keap1 in rat HBZY-1 cells assessed as disruption of Keap1/Nrf2 complex by measuring reduction in Keap1 protein expression by Western blot analysis; format: cell-based
# [16] = biological target: Kelch-like ECH-associated protein 1 (Rattus norvegicus) (UniProt P57790); assay: Binding affinity to Keap1 in rat HBZY-1 cells assessed as induction of Keap1/Nrf2 signaling by measuring increase in HO-1 protein expression at 6 uM by Western blot analysis; format: cell-based; details: TDE = time-dependent effect
# [17] = biological target: Kelch-like ECH-associated protein 1 (Rattus norvegicus) (UniProt P57790); assay: Binding affinity to Keap1 in rat HBZY-1 cells assessed as induction of Keap1/Nrf2 signaling by measuring induction of Nrf2 nuclear translocation by measuring increase in ratio of nuclear to cytosolic Nrf2 level at 6 uM by Western blot analysis; format: cell-based; details: TDE = time-dependent effect
# HBZY-1 [18] = assay: Antiinflammatory activity in rat HBZY-1 cells assessed as reduction in nitric oxide production at 6 uM preincubated for 30 mins followed by LPS stimulation and measured after 24 hrs in presence of Nrf2 inhibitor TRG by Griess assay; format: functional, cell-based
# [19] = biological target: Kelch-like ECH-associated protein 1 (Rattus norvegicus) (UniProt P57790); assay: Binding affinity to Keap1 in rat HBZY-1 cells assessed as induction of Keap1/Nrf2 signaling by measuring increase in GCLC protein expression at 6 uM by Western blot analysis; format: cell-based; details: TDE = time-dependent effect
# HBZY-1 [20] = assay: Cytoprotection against H2O2-induced cell death in rat HBZY-1 cells assessed as increase in cell viability at 6 uM preincubated for 2 hrs followed by H2O2 addition and measured after 24 hrs in presence of Nrf2 inhibitor TRG by MTT assay; format: functional, cell-based
# HBZY-1 [21] = assay: Antioxidant activity in rat HBZY-1 cells assessed as reduction in H2O2-induced intracellular ROS accumulation incubated with compound prior to H2O2 addition by DCFH-DA based flow cytometry; format: functional, cell-based
# [22] = biological target: Kelch-like ECH-associated protein 1 (Rattus norvegicus) (UniProt P57790); assay: (§1) Binding affinity to Keap1 in rat HBZY-1 cells transfected with pNF-kB-Luc/pRL-CMV assessed as induction of Keap1/Nrf2 signaling by measuring reduction in LPS-induced NFkappaB activation at 6 uM preincubated for 30 mins followed by LPS stimulation and measured after 12 hrs in presence of Nrf2 inhibitor TRG by luciferase reporter gene assay; format: cell-based
# HBZY-1 [23] = assay: Antiinflammatory activity in rat HBZY-1 cells assessed as reduction in LPS-induced NO production preincubated for 30 mins followed by LPS stimulation and measured after 24 hrs by Griess assay; format: functional, cell-based
# HBZY-1 [24] = assay: Cytoprotection against H2O2-induced cell death in rat HBZY-1 cells assessed as increase in cell viability at 6 uM preincubated for 2 hrs followed by H2O2 addition and measured after 24 hrs in presence of HO-1 inhibitor ZnPP by MTT assay; format: functional, cell-based
# HBZY-1 [25] = assay: Cytoprotection activity against H2O2-induced cell death in rat HBZY-1 cells assessed as increase in cell viability preincubated with compound for 2 hrs followed by H2O2 addition and measured after 24 hrs by MTT assay; format: functional, cell-based
# [26] = biological target: Kelch-like ECH-associated protein 1 (Rattus norvegicus) (UniProt P57790); assay: Binding affinity to Keap1 in rat HBZY-1 cells transfected with pNF-kB-Luc/pRL-CMV assessed as induction of Keap1/Nrf2 signaling by measuring reduction in LPS-induced NFkappaB activation preincubated for 30 mins followed by LPS stimulation and measured after 12 hrs by luciferase reporter gene assay; format: cell-based
# [27] = biological target: Kelch-like ECH-associated protein 1 (Rattus norvegicus) (UniProt P57790); assay: as §1, with “of HO-1” for “of Nrf2”, “inhibitor ZnPP” for “inhibitor TRG”; format: cell-based
# [28] = biological target: Kelch-like ECH-associated protein 1 (Rattus norvegicus) (UniProt P57790); assay: Binding affinity to Keap1 in rat HBZY-1 cells assessed as disruption of Keap1/Nrf2 complex by measuring Keap1 expression in presence of DTT by Western blot analysis; format: cell-based
# [29] = biological target: Kelch-like ECH-associated protein 1 (Rattus norvegicus) (UniProt P57790); assay: Binding affinity to Keap1 in rat HBZY-1 cells assessed as disruption of Keap1/Nrf2 complex by measuring Nrf2 expression in presence of DTT by Western blot analysis; format: cell-based
# [30] = biological target: T1, Nuclear factor erythroid 2-related factor 2 (Homo sapiens) (UniProt Q16236); assay: Activation of Nrf2 (unknown origin) expressed in HEK293 cells co-transfected with ARE luciferase reporter plasmid after 16 hrs by dual luciferase reporter gene assay; format: cell-based
# T1 sequence (whole entry): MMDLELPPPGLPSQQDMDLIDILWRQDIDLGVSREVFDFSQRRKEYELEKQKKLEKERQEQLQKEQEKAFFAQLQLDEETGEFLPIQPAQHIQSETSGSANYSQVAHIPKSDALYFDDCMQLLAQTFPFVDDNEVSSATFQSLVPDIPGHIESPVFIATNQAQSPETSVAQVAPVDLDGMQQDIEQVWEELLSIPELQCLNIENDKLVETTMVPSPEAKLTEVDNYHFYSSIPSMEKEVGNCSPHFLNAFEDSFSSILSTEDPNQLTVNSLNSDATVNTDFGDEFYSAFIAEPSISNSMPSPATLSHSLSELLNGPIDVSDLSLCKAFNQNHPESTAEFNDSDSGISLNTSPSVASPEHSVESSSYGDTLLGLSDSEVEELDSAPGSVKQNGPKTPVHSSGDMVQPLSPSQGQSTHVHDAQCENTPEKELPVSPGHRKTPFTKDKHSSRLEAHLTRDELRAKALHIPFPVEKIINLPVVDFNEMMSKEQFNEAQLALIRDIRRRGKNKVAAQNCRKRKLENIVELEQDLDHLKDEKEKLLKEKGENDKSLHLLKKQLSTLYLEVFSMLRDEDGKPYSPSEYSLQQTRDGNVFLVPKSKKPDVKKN
# [31] = biological target: Kelch-like ECH-associated protein 1 (Rattus norvegicus) (UniProt P57790); assay: Binding affinity to Keap1 in rat HBZY-1 cells assessed as disruption of Keap1/Nrf2 complex by measuring increase in Nrf2 expression by Western blot analysis; format: cell-based
# HBZY-1 [32] = assay: Antiinflammatory activity in rat HBZY-1 cells assessed as reduction in NO production at 6 uM preincubated for 30 mins followed by LPS stimulation and measured after 24 hrs in presence of HO-1 inhibitor ZnPP by Griess assay; format: functional, cell-based
structure (smiles),measurement,setting,value
COc1ccc(CNC(=O)/C=C/c2ccccc2C(F)(F)F)cc1,viability at 6 µM,HBZY-1 [1],65.6 to 96.4%
same,IC50,HBZY-1 [2],> 200 µM
COc1ccc(CCNC(=O)/C=C/c2ccccc2C(F)(F)F)cc1OC,viability at 6 µM,HBZY-1 [1],65.6 to 96.4%
same,IC50,HBZY-1 [2],> 200 µM
COc1ccc(NC(=O)/C=C/c2ccccc2C(F)(F)F)cc1,viability at 6 µM,HBZY-1 [1],65.6 to 96.4%
same,IC50,HBZY-1 [2],> 200 µM
N#C/C(=C\c1ccccc1C(F)(F)F)C(=O)Nc1ccc(F)c(Cl)c1,viability at 6 µM,HBZY-1 [1],80.4%
same,IC50,HBZY-1 [2],> 200 µM
COc1ccccc1NC(=O)/C(C#N)=C/c1ccc(C)cc1,viability at 6 µM,HBZY-1 [1],65.6 to 96.4%
same,IC50,HBZY-1 [2],> 200 µM
O=C(/C=C/c1ccccc1C(F)(F)F)Nc1ccc(F)c(Cl)c1,viability at 6 µM,HBZY-1 [1],65.6 to 96.4%
same,IC50,HBZY-1 [2],> 200 µM
CCCCNC(=O)/C(C#N)=C/c1ccccc1C(F)(F)F,viability at 6 µM,HBZY-1 [1],65.6 to 96.4%
same,IC50,HBZY-1 [2],> 200 µM
COc1ccc(/C=C(\C#N)C(=O)Nc2ccccc2OC)cc1,viability at 6 µM,HBZY-1 [1],65.6 to 96.4%
same,IC50,HBZY-1 [2],> 200 µM
COc1ccccc1NC(=O)/C(C#N)=C/c1cccc([N+](=O)[O-])c1,viability at 6 µM,HBZY-1 [1],65.6 to 96.4%
same,IC50,HBZY-1 [2],> 200 µM
COc1ccccc1NC(=O)/C(C#N)=C/c1ccccc1C,viability at 6 µM,HBZY-1 [1],65.6 to 96.4%
same,IC50,HBZY-1 [2],> 200 µM
Oc1ccc(/C=C/c2cc(O)cc(O)c2)cc1 [RESVERATROL],viability at 6 µM,HBZY-1 [1],76.8%
same,Activity,[3],Active
same,Activity,[4],Active
same,Activity,[5],Active
same,Activity,[6],Active
same,Activity,[7],Active
same,Activity,[8],Active
same,Activity,[9],Active
same,Activity,[10],Active
same,Activity,[11],Active
COc1ccccc1NC(=O)/C(C#N)=C/c1ccccc1C(F)(F)F,Activity,HBZY-1 [12],inactive
same,Activity,[13],Tde
same,Activity,[14],Tde
same,Activity,[15],Active
same,viability at 6 µM,HBZY-1 [1],65.6 to 96.4%
same,Activity,[16],Tde
same,Activity,[17],Tde
same,Activity,[3],Dose-dependent effect
same,Activity,HBZY-1 [18],inactive
same,Activity,[19],Tde
same,Activity,HBZY-1 [20],inactive
same,Activity,HBZY-1 [21],Dose-dependent effect
same,Activity,[7],Dose-dependent effect
same,Activity,[22],inactive
same,Activity,HBZY-1 [23],Dose-dependent effect
same,Activity,[8],Dose-dependent effect
same,Activity,[9],Dose-dependent effect
same,Activity,HBZY-1 [24],inactive
same,Activity,[10],Dose-dependent effect
same,Activity,HBZY-1 [25],Dose-dependent effect
same,Activity,[26],Dose-dependent effect
same,IC50,HBZY-1 [2],> 200 µM
same,Activity,[27],inactive
same,Activity,[28],inactive
same,Activity,[29],inactive
same,Activity,[30],Dose-dependent effect
same,Activity,[31],Active
same,Activity,HBZY-1 [32],inactive
COc1cc(NC(=O)/C(C#N)=C/c2ccccc2C(F)(F)F)cc(OC)c1OC,viability at 6 µM,HBZY-1 [1],65.6 to 96.4%
same,IC50,HBZY-1 [2],> 200 µM
